Experimental data published in patent US20240238268A1, “TREATMENTS AND METHODS FOR TREATING ALZHEIMER'S DISEASE” (Board of Supervisors of Louisiana State University and …, priority 2021, published 2024).

Legend:
Format in all cases: in vivo, mouse
3-nitrotyrosine = assay: 3-Nitrotyrosine ELISA of brain lysate; conditions: combined cortex and hippocampus lysate
Experimental: OxiSelect™ 3-Nitrotyrosine ELISA: Protein was extracted from dissected tissue in an extraction buffer consisting of T-PER® Tissue Protein Extraction Reagent (Cat. No. 78510, Thermo Fischer Scientific, Waltham, MA) and Halt™ Protease Inhibitor Cocktail (Cat. No. 87785, Thermo Fischer Scientific, Waltham, MA). Following homogenization and centrifugation (10,000×g, 5 min, 4° C.), protein concentration was determined in the supernatant using DC Protein Assay (Cat. No. 5000112, Bio-Rad Laboratories, Hercules, California) according to manufacturer instructions. Levels of 3-Nitrotyrosine were determined using OxiSelect™ 3-Nitrotyrosine ELISA (Cat. No. STA-305, Cell Biolabs Inc., San Diego, CA). Briefly, 50 μL of protein lysate was added to a pre-coated 96-well plate and incubated at room temperature (20° C.) for 10 min on an orbital shaker. 50 μL of anti-nitrotyrosine antibody (1:1000, Cell Biolabs Inc., San Diego, CA) was added to each well and plate was incubated for 1 hr at 20° C. Wells were washed 3 times using assay wash buffer, and 100 μL of secondary antibody-enzyme conjugate (1:1000, Cell Biolabs Inc., San Diego, CA) was added to each well. Plate was then incubated for 1 hr at 20° C. on an orbital shaker. […] The standard curve was provided by the manufacturer, and all sample concentrations were determined from the standard curve values. Changes in absorbance were measured at 450 nm. […]

nNOS = nNOS protein level in brain, capillary-phoresis; conditions: treated 3xTg-AD mice; control = 100%
Description: (§1) Capillary-phoresis immunoassay via ProteinSimple®: Quantification of all protein targets was achieved using Simple Western analysis in a Jess™ apparatus per the manufacturer's protocol (ProteinSimple, Bio-techne, Minneapolis, MN). Protein was extracted from dissected tissue in an extraction buffer consisting of T-PER® Tissue Protein Extraction Reagent (Cat. No. 78510, Thermo Fischer Scientific, Waltham, MA) and Halt™ Protease Inhibitor Cocktail (Cat. No. 87785, Thermo Fischer Scientific, Waltham, MA). Following homogenization and centrifugation (10,000×g, 5 min, 4° C.), protein concentration was determined in tissue protein supernatant samples using DC Protein Assay (Cat. No. 5000112, Bio-Rad Laboratories, Hercules, California) according to manufacturer instructions. […] Antibody diluent (ProteinSimple, Bio-techne, Minneapolis, MN) was used for all antibody dilutions as follows: PRMT4 (1:50, RRID: AB_2068436), PRMT6 (1:100, Cell Signaling Technology cat. 14641), eNOS (1:200, RRID: AB_10850618), nNOS (1:100, RRID: AB_2152488), iNOS (1:100, RRID: AB_10000625), DDAH2 (1:50, RRID: AB_2640442) Antibodies were detected using HRP-conjugated secondary anti-rabbit, and -mouse. Relative protein levels were calculated by measuring the area under the peak of a chemiluminescent chromatogram and normalized to total capillary chemiluminescence for a given sample. […]

[1] = system: amyloid precursor protein (APP); assay: Amyloid precursor protein level in brain, capillary-phoresis; conditions: treated 3xTg-AD mice; controls = 100%; not significantly changed vs untreated 3xTg
Description: as §1

## CNCCN1CCC(c2cc(CN(C)C(=O)c3cccc(Oc4ccccc4)c3)ccn2)CC1 [TP-064, N-Methyl-N-((2-(1-(2-(methylamino)ethyl)piperidin-4-yl)pyridin-4-yl)methyl)-3-phenoxybenzamide]
3-nitrotyrosine; 3xTg-AD mice
  3-nitrotyrosine level: 110 ± 27.2 µM
3-nitrotyrosine; C57BL/6J mice
  3-nitrotyrosine level: 86.9 ± 7.71 µM
nNOS
  nNOS level in cortical lysates: 40.3%±2.88
  nNOS level in hippocampal lysates: 133%±8.15
[1]
  APP level in cortex: 801%±36.3
  APP level in hippocampus: 1040%±31.1
